The values that follow come from paper PMC12177781, “Chalcogen Derivatives for the Treatment of African Trypanosomiasis: Biological Evaluation of Thio- and Seleno-Semicarbazones and Their Azole Derivatives” (ACS Omega, 2025).

“And” between values parts separate entries of the source, which are not always exact repeats. Identical values can stand only once.

One data set has as its system hCatL. Particulars: E-64, from ref. (number not given); cited from earlier work.
Data set [1] concerns the target T. brucei cathepsin L-like protease (TbrCATL) (Trypanosoma brucei rhodesiense, UniProt Q95PM0). Kind of data set: TbrCATL inhibition assay, Z-FR-AMC substrate. In kind it is biochemical. Particulars: for SI TbrCATL: IC50 hCatL/IC50 TbrCATL; for IC50: IC50 TbrCATL (nM), mean ± SD, two experiments in triplicate (n = 6); for TbrCATL inhibition (%): at 10 μM; for inhibition at 10 µM: read-out: TbrCATL inhibition (%), at 10 μM. On the procedure:
(§1) All experiments were performed in a 384-well black microplate, using a Synergy HTX (Biotek) plate reader at 25 °C with absorption/emission wavelengths of 360/460 nm. Assays were performed in triplicate wells and DMSO was used as a vehicle control. Enzyme activity was measured and normalized to DMSO controls, and the inhibitor E-64 (10 μM) was used as a positive control for all assays. Experiments were performed in triplicate, with at least two independent assays (n = 6 data points). IC50 values were determined through nonlinear regression. The data obtained were analyzed using GraphPad Prism 9.0 (GraphPad Software, La Jolla, California, US).
The screening assay was performed using 0.5 nM of TbrCATL diluted in 0.1 M sodium acetate, 1 mM dithiothreitol (DTT), and 0.01% Triton X-100, pH 5.5. TbrCATL was expressed and purified as described. Enzyme the compound (10 μM), were incubated for 10 min at room temperature. Then the substrate, Z-Phe-Arg-amidomethylcoumarin (Z-FR-AMC; Sigma-Aldrich, C9521), was added (30 μL diluted in the same assay buffer) to yield a final concentration of 2.5 μM and the assay allowed to proceed for 10 min. […] For those compounds inhibiting enzyme activity by >85%, DR assays were performed over 15 2-fold serial dilutions starting at 0.5 or 20 μM.

The subject of a further data set is TbrCATL. Particulars: cited from earlier work.
Data set [2] concerns HEK293 cells. Kind of data set: HEK293 cytotoxicity, CellTiter-Glo, 48 h. Particulars: Homo sapiens, HEK293, read-out: HEK293 inhibition (%). In general terms: Cellular ATP, detected with luciferase, serves as a proxy for viable cell number.
Data set [3] is described as follows: HEK293 cytotoxicity, CellTiter-Glo, 48 h. Particulars: human, HEK293 cells.
Data set [4] can be described thus: HepG2 cytotoxicity, CellTiter-Glo, 48 h. Particulars: human, HepG2 cells.
Data set [5] has as its system HepG2 cells. Put plainly: HepG2 cytotoxicity, CellTiter-Glo, 48 h. Particulars: Homo sapiens, HepG2, read-out: HepG2 inhibition (%).
The target of data set [6] is T1, human cathepsin L (hCatL) (Homo sapiens, UniProt P07711).
T1 construct: purchased R&D Systems 952-CY
T1 sequence (P07711 114-333): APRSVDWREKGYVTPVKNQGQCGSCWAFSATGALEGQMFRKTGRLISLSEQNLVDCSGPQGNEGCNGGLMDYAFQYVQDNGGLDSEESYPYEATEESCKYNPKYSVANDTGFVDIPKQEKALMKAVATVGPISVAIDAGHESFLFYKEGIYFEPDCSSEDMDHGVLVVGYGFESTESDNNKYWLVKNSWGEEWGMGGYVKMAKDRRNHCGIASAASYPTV
Put plainly: hCatL inhibition assay, Z-FR-AMC substrate. It is filed as biochemical. Particulars: mean ± SD, two experiments in triplicate (n = 6). How it is done:
as §1
Recombinant hCatL was purchased from R&D Systems (952-CY) and activated according to the manufacturers protocol. This enzyme, hCatL, is used to test compounds’ selectivity because it is the human homologue of TbrCATL. The assay was modified from, using 25 pM of the enzyme diluted in 40 mM sodium acetate, 5 mM DTT, 100 mM NaCl, 1 mM EDTA and 0.01% Triton X-100, pH 5.5. Enzyme and compound (10 μM), were incubated for 30 min at room temperature. Then Z-FR-AMC was added (30 μL diluted in the same assay buffer) to yield a final concentration of 25 μM and the assay allowed to proceed for 10 min. DR assays were performed over 15 2-fold serial dilutions starting at 0.5 or 20 μM.

A further data set concerns cruzain (Cz). Particulars: cited from earlier work.
Data set [7] can be described thus: in vitro. Particulars: human, CC50 HEK293 (μM).
Another data set relates to C2C12 cells. Particulars: read-out: Toxicity CC50 C2C12 cells; cited from earlier work.
Data set [8] can be described thus: in vitro. Particulars: human, CC50 HepG2 (μM).
Data set [9] is described as follows: DPPH radical scavenging (antioxidant) assay. Particulars: after 2 h, mean ± SEM. In general terms: DPPH is a stable violet radical that fades when it is reduced.
Data set [10] concerns T. brucei brucei Lister 427. Put plainly: T. b. brucei Lister 427 bloodstream-form growth inhibition, SYBR Green viability assay, 72 h. In kind it is cell-based, Trypanosoma brucei brucei. Particulars: for EC50: Trypanosoma brucei, three independent experiments in duplicate (n = 6) ± SD, read-out: EC50 T. brucei; for T. brucei inhibition (%): growth inhibition at 10 µM, ± SD.

The subject of data set [11] is HepG2 cells. Particulars: human.
Data set [12] concerns HEK293 cells. Particulars: human.
For another data set, the system named is T. cruzi CAI/72. Particulars: cited from earlier work.
For data set [13] the following is noted: pharmacokinetic study; ref previous work; cited from earlier work.

T. brucei cathepsin L-like protease (TbrCATL), sequence (Q95PM0 1-450): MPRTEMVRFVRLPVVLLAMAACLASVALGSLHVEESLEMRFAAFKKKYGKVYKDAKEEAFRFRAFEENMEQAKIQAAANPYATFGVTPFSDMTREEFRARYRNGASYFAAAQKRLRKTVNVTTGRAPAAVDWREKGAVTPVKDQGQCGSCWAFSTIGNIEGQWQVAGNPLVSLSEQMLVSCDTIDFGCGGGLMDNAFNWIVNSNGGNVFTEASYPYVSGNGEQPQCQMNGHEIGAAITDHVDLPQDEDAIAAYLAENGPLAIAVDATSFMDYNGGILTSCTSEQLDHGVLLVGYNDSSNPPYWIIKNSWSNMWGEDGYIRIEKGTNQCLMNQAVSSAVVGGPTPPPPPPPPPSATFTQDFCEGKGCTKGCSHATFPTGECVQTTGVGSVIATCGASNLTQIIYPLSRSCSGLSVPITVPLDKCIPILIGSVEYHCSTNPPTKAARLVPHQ

For `CC(C)C[C@H](NC(=O)[C@H]1O[C@@H]1C(=O)O)C(=O)NCCCCN=C(N)N` [Compound E-64, E-64], the IC50 with hCatL is 30 ± 4 nM; with TbrCATL, 3.1 nM. In data set [1], the “SI TbrCATL” value was 10.

`CC(C)C[C@H](NC(=O)[C@H](Cc1ccccc1)NC(=O)c1cnccn1)B(O)O` [Bortezomib, reference compound]: the inhibition at 10 µM with HEK293 cells [2] came out at 100 ± 2%; in the data set with HepG2 cells [5], 100 ± 1%. Moreover, the CC50 at 48 h in [3] is 15 ± 2 nM; in [4], 15 ± 3 nM.

For `C/C(=N\NC(N)=[Se])c1cccc([N+](=O)[O-])c1` [SeO5], the IC50 in data set [6] is 0.51 ± 0.08 nM; in the data set with cruzain (Cz) it was 0.91 ± 0.18 nM; in [1], 0.51 nM and 0.3 nM. Besides, the figures for the CC50 in the data set “in vitro [7]”, with C2C12 cells and in the data set “in vitro [8]” were 2.29 ± 0.26 µM, above 10000 nM and 5.54 ± 1.47 µM, respectively. Moreover, the “% inhibited DPPH” value in data set [9] (0.015 mg/ml) came out at 22.00 ± 17.67%; in [9] (0.03 mg/ml) it was 63.33 ± 6.89%; in data set [9] (0.06 mg/ml), 75.67 ± 1.67%. Further, the inhibition at 10 µM is 100% in the data set on HEK293 cells [2], above 85% in [1] and 85% with HepG2 cells [5]. The EC50 in data set [10] worked out at 5830 ± 720 nM. The “T. brucei inhibition (%)” value in [10] (10 µM) is on record as 100 ± 1%; in [10] (listed as Se O5, 10 µM), above 70%. The “SI TbrCATL” value in data set [1] was determined as 2. In [1], the “TbrCATL inhibition (%)” value worked out at 101.47%.

For `C/C(=N\NC(N)=[Se])c1ccc(Br)cc1` [SeO3], the IC50 in data set [6] was 9.87 ± 0.63 nM; in the data set with cruzain (Cz) it was 14.3 ± 3.57 nM; in data set [1] it was 9.87 nM and 1.22 nM. Further, the CC50 in “in vitro [7]” was 2.7 µM; in the data set on HepG2 cells [11], 2700 ± 160 nM; in the data set with C2C12 cells, above 10000 nM; with HEK293 cells [12], 2820 ± 110 nM; in the data set “in vitro [8]”, 2.82 µM. Moreover, the concentration giving a half-maximal response (EC50) is 770 ± 170 nM with T. cruzi CAI/72 and 470 ± 20 nM in [10]. Also, the figures for the “% inhibited DPPH” value in data set [9] (0.015 mg/ml), in data set [9] (0.03 mg/ml) and in [9] (0.06 mg/ml) were 23.00 ± 13.43%, 75.00 ± 2.65% and 77.67 ± 1.45%, respectively. Besides, the inhibition at 10 µM in the data set with HEK293 cells [2] is 100%; in data set [1] it was above 85%; in the data set with HepG2 cells [5] it was 71 ± 15%. Also, the “T. brucei inhibition (%)” value is recorded as 100 ± 2% in [10] (10 µM) and above 70% in data set [10] (listed as Se O3, 10 µM). For the same compound, in [1], the “SI TbrCATL” value was found to be 8. Besides, the “TbrCATL inhibition (%)” value in [1] was 99.15%.

In the case of `C/C(=N\Nc1nc(C)c[se]1)c1cccc([N+](=O)[O-])c1` [SeC5], the IC50 in data set [6] is 175 ± 43.7 nM; in the data set with cruzain (Cz), 8.99 ± 5.56 nM. The figures for the CC50 in the data set “in vitro [7]”, with C2C12 cells and in “in vitro [8]” were 9 ± 1.36 µM, above 10000 nM and 11.3 ± 0.97 µM, respectively. The values for the EC50 (in the data set on T. cruzi CAI/72; in data set [10]) were 310 ± 180 nM and 10500 ± 1020 nM, respectively. Besides, the “% inhibited DPPH” value turned out to be 77.33 ± 0.88% in data set [9] (0.015 mg/ml), 78.00 ± 1.73% in data set [9] (0.03 mg/ml) and 78.33 ± 1.76% in data set [9] (0.06 mg/ml). Further, the values for the inhibition at 10 µM (in the data set on HEK293 cells [2]; in data set [1]; in the data set with HepG2 cells [5]) were 81 ± 7%, above 85% and 77 ± 6%, respectively. Besides, the “T. brucei inhibition (%)” value in data set [10] (10 µM) is listed as 100 ± 2%; in data set [10] (listed as Se C5, 10 µM), above 70%. In [1], the “SI TbrCATL” value worked out at 25. Further, the “TbrCATL inhibition (%)” value in data set [1] was found to be 98.02%. Further, the oral bioavailability entry in [13] was “favorable oral bioavailability”.

By IC50 is commonly meant the concentration that inhibits the measured activity by half. A word on the inhibition: it is the relative decrease from the control value, in per cent. Usually EC50 stands for the concentration that produces a half-maximal response.
